Test results published in publication PMC4304654 (Bioorganic & medicinal chemistry, 2012).
Values after ≈ are worked out from the molar mass of the structure shown.

Assay: Aqueous solubility in the sodium acetate buffer of the fibrillization assay
Format: physicochemical

CCOC(=O)c1nn(-c2ccc(O)cc2)c(=O)c2c(N)scc12 [Compound 32, Ethyl 5-amino-3-(4-hydroxyphenyl)-4-oxo-3,4-dihydrothieno[3,4-d]pyridazine-1-carboxylate]
solubility: 12.8 µM (≈ 4.24 µg/mL)

CCOC(=O)c1nn(-c2ccc(C(F)(F)F)cc2)c(=O)c2c(N)scc12 [Compound 30, Ethyl 5-amino-4-oxo-3-(4-(trifluoromethyl)phenyl)-3,4-dihydrothieno[3,4-d]pyridazine-1-carboxylate]
solubility: 32 µM (≈ 12.3 µg/mL)

Nc1scc2c(C(=O)O)nn(-c3ccc(OC(F)(F)F)cc3)c(=O)c12 [Compound 39, 5-Amino-4-oxo-3-(4-(trifluoromethoxy)phenyl)-3,4-dihydrothieno[3,4-d]pyridazine-1-carboxylic acid]
solubility: > 200 µM

Nc1scc2c(C(=O)O)nn(-c3ccc(F)cc3)c(=O)c12 [Compound 34, 5-Amino-3-(4-fluorophenyl)-4-oxo-3,4-dihydrothieno[3,4-d]pyridazine-1-carboxylic acid]
solubility: > 200 µM

CCOC(=O)c1nn(-c2ccc(F)cc2)c(=O)c2c(N)scc12 [Compound 26, Ethyl 5-amino-3-(4-fluorophenyl)-4-oxo-3,4-dihydrothieno[3,4-d]pyridazine-1-carboxylate]
solubility: > 200 µM

CCOC(=O)c1c(C(=O)c2ccccc2)csc1N [Compound 54, Ethyl 2-amino-4-benzoylthiophene-3-carboxylate]
solubility: > 200 µM

Cc1nn(-c2cccnc2)c(=O)c2c(N)scc12 [Compound 61, 7-Amino-4-methyl-2-(pyridin-3-yl)thieno[3,4-d]pyridazin-1(2H)-one]
solubility: > 200 µM

Nc1scc2c(C(=O)O)nn(-c3ccccc3Cl)c(=O)c12 [Compound 35, 5-Amino-3-(2-chlorophenyl)-4-oxo-3,4-dihydrothieno[3,4-d]pyridazine-1-carboxylic acid]
solubility: > 200 µM

Nc1scc2c(-c3ccccc3)nn(CC(F)(F)F)c(=O)c12 [Compound 64, 7-Amino-4-phenyl-2-(2,2,2-trifluoroethyl)thieno[3,4-d]pyridazin-1(2H)-one]
solubility: > 200 µM

CCOC(=O)c1nn(-c2cccc(Cl)c2)c(=O)c2c(N)scc12 [Compound 28, Ethyl 5-amino-3-(3-chlorophenyl)-4-oxo-3,4-dihydrothieno-[3,4-d]pyridazine-1-carboxylate]
solubility: 32 µM (≈ 11.2 µg/mL)

Cc1nn(CC(F)(F)F)c(=O)c2c(N)scc12 [Compound 58, 7-Amino-4-methyl-2-(2,2,2-trifluoroethyl)thieno[3,4-d]pyridazin-1(2H)-one]
solubility: > 200 µM

CCOC(=O)c1nn(-c2ccccc2Cl)c(=O)c2c(N)scc12 [Compound 27, Ethyl 5-amino-3-(2-chlorophenyl)-4-oxo-3,4-dihydrothieno-[3,4-d]pyridazine-1-carboxylate]
solubility: 12.8 µM (≈ 4.48 µg/mL)

CC(C)NC(=O)c1nn(-c2cccc(Cl)c2)c(=O)c2c(N)scc12 [Compound 46, 5-Amino-3-(3-chlorophenyl)-N-isopropyl-4-oxo-3,4-dihydrothieno[3,4-d]pyridazine-1-carboxamide]
solubility: 32 µM (≈ 11.6 µg/mL)

CCOC(=O)c1nn(-c2ccc(Cl)cc2)c(=O)c2c(NC)scc12 [Compound 66, Ethyl 3-(4-chlorophenyl)-5-(methylamino)-4-oxo-3,4-dihydrothieno[3,4-d]pyridazine-1-carboxylate]
solubility: 80 µM (≈ 29.1 µg/mL)

CCOC(=O)c1nn(-c2ccc(C(C)C)cc2)c(=O)c2c(N)scc12 [Compound 33, Ethyl 5-amino-3-(4-isopropylphenyl)-4-oxo-3,4-dihydrothieno[3,4-d]pyridazine-1-carboxylate]
solubility: 32 µM (≈ 11.4 µg/mL)

CC(C)n1nc(-c2ccccc2)c2csc(N)c2c1=O [Compound 65, 7-Amino-2-isopropyl-4-phenylthieno[3,4-d]pyridazin-1(2H)-one]
solubility: > 200 µM

CC(C)c1ccc(-n2nc(C(=O)NC3CC3)c3csc(N)c3c2=O)cc1 [Compound 50, 5-Amino-N-cyclopropyl-3-(4-isopropylphenyl)-4-oxo-3,4-dihydrothieno[3,4-d]pyridazine-1-carboxamide]
solubility: 80 µM (≈ 29.5 µg/mL)

CC(C)NC(=O)c1nn(-c2ccc(O)cc2)c(=O)c2c(N)scc12 [Compound 49, 5-Amino-3-(4-hydroxyphenyl)-N-isopropyl-4-oxo-3,4-dihydrothieno[3,4-d]pyridazine-1-carboxamide]
solubility: > 200 µM

Cc1nn(-c2ccccn2)c(=O)c2c(N)scc12 [Compound 60, 7-Amino-4-methyl-2-(pyridin-2-yl)thieno[3,4-d]pyridazin-1(2H)-one]
solubility: > 200 µM

Cc1nn(-c2ccc(Cl)cc2)c(=O)c2c(N)scc12 [Compound 63, 7-Amino-2-(4-chlorophenyl)-4-methylthieno[3,4-d]pyridazin-1(2H)-one]
solubility: 80 µM (≈ 23.3 µg/mL)

Nc1scc2c(C(=O)O)nn(-c3cccc(Cl)c3)c(=O)c12 [Compound 36, 5-Amino-3-(3-chlorophenyl)-4-oxo-3,4-dihydrothieno[3,4-d]pyridazine-1-carboxylic acid]
solubility: 32 µM (≈ 10.3 µg/mL)

Nc1scc2c(C(=O)NC3CC3)nn(-c3ccccc3Cl)c(=O)c12 [Compound 45, 5-Amino-3-(2-chlorophenyl)-N-cyclopropyl-4-oxo-3,4-dihydrothieno[3,4-d]pyridazine-1-carboxamide]
solubility: 80 µM (≈ 28.9 µg/mL)

Nc1scc2c(C(=O)O)nn(-c3ccc(C(F)(F)F)cc3)c(=O)c12 [Compound 38, 5-Amino-4-oxo-3-(4-(trifluoromethyl)phenyl)-3,4-dihydrothieno[3,4-d]pyridazine-1-carboxylic acid]
solubility: > 200 µM

CCOC(=O)c1nn(-c2ccc(Cl)cc2)c(=O)c2c1C(O)NC2=O (stereo not drawn) [Compound 69, Ethyl 2-(4-chlorophenyl)-5-hydroxy-1,7-dioxo-2,5,6,7-tetrahydro-1H-pyrrolo[3,4-d]pyridazine-4-carboxylate]
solubility: > 200 µM

CC(C)NC(=O)c1nn(-c2ccc(OC(F)(F)F)cc2)c(=O)c2c(N)scc12 [Compound 48, 5-Amino-N-isopropyl-4-oxo-3-(4-(trifluoromethoxy)-phenyl)-3,4-dihydrothieno[3,4-d]pyridazine-1-carboxamide]
solubility: 80 µM (≈ 33 µg/mL)

CCOC(=O)c1nn(-c2ccc(OC(F)(F)F)cc2)c(=O)c2c(N)scc12 [Compound 31, Ethyl 5-amino-4-oxo-3-(4-(trifluoromethoxy)phenyl)-3,4-dihydrothieno[3,4-d]pyridazine-1-carboxylate]
solubility: 12.8 µM (≈ 5.11 µg/mL)

Cc1nn(C2CCCCC2)c(=O)c2c(N)scc12 [Compound 59, 7-Amino-2-cyclohexyl-4-methylthieno[3,4-d]pyridazin-1(2H)-one]
solubility: > 200 µM

Cc1nn(C(C)C)c(=O)c2c(N)scc12 [Compound 57, 7-Amino-2-isopropyl-4-methylthieno[3,4-d]pyridazin-1(2H)-one]
solubility: 80 µM (≈ 17.9 µg/mL)

Nc1scc2c(C(=O)O)nn(-c3ccc(O)cc3)c(=O)c12 [Compound 40, 5-Amino-3-(4-hydroxyphenyl)-4-oxo-3,4-dihydrothieno[3,4-d]pyridazine-1-carboxylic acid]
solubility: > 200 µM

Nc1scc2c(C(=O)NC3CC3)nn(-c3ccc(C(F)(F)F)cc3)c(=O)c12 [Compound 47, 5-Amino-N-cyclopropyl-4-oxo-3-(4-(trifluoromethyl)-phenyl)-3,4-dihydrothieno[3,4-d]pyridazine-1-carboxamide]
solubility: 80 µM (≈ 31.6 µg/mL)
